# Reference: US20230357179A1, “RAF KINASE INHIBITORS AND METHODS OF USE THEREOF” (Deciphera Pharmaceuticals, LLC, priority 2021, published 2023)
# Columns and labels:
# B-Raf kinase = target: T1, B-Raf kinase (Homo sapiens, UniProt P15056); experiment: Biochemical assay for B-Raf.1 (coupled pyruvate kinase/lactate dehydrogenase); details: read-out: BRAF.1 IC50
# T1 construct: GST (N); purchased Sigma
# Outline: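 NADH oxidation followed at 340 nm in a pyruvate kinase/lactate dehydrogenase-coupled assay with 0.13 nM B-Raf, 30.1 nM MEK substrate, 1 mM ATP, pH 7.5 Tris buffer, 1% DMSO. Monitored 6 h at 30 °C; rate taken from 4–5 h. IC50 from four-parameter sigmoidal fit.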
# B-Raf (V600E) kinase = target: T2, B-Raf (V600E) kinase (Homo sapiens, UniProt P15056, V600E); experiment: Biochemical assay for B-Raf (V600E).1 (coupled pyruvate kinase/lactate dehydrogenase); details: read-out: BRAF V600E.1 IC50
# T2 construct: B-Raf (V600E) residues 416-766 with a; GST (N); purchased SignalChem
# Outline: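 0.03 nM B-Raf(V600E) phosphorylating 30.1 nM MEK at 1 mM ATP, pH 7.5, coupled to PK/LDH, with NADH oxidation followed at 340 nm for 6 h at 30 °C. Rates taken from the 3-4 h window. IC50 from a four-parameter fit of percent inhibition.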
# A375 cells = experiment: A375 cell proliferation assay (1), resazurin, 96-well; format: cell-based; details: Homo sapiens, A-375, inhibition of cell proliferation
# Method: A375 Cell Proliferation Assay (1)
# A375 cells (catalog (#CRL-1619) are obtained from the American Type Culture Collect (ATTC, Manassas, VA). Briefly, cells were grown in DMEM High Glucose supplemented with 10% characterized fetal bovine serum (Invitrogen, Carlsbad, CA) and 1% Penicillin/Streptomycin/L-Glutamine at 37° C., 5% CO2, and 95% humidity. Cells are expanded until reaching 70-95% confluency at which point they are sub-cultured or harvested for assay use. A serial dilution of test compound is dispensed into a 96-well black clear bottom plate in triplicate. Two thousand five hundred cells are added per well in 200 μL complete growth medium in the 96-well plate. Plates are incubated for 67-72 hours at 37° C., 5% CO2, and 95% humidity. At the end of the incubation, 40 μL of a 440 μM solution of resazurin (Sigma, St. Louis, MO) in PBS is added to each well of the plate and plates are incubated for an additional 5-6 hours at 37° C., 5% CO2, and 95% humidity. Plates are read on a Synergy2 or equivalent reader (Biotek, Winooski VT) using an excitation of 540 nm and an emission of 600 nm. Data is analyzed using Prism software (GraphPad, San Diego, CA) to calculate IC50 values.
# H2405 cells = experiment: H2405 cell proliferation assay (1), resazurin, 96-well; format: cell-based; details: Homo sapiens, NCI-H2405, inhibition of cell proliferation
# Method: H2405 Cell Proliferation Assay (1)
# H2405 cells (catalog #CRL-5944) are obtained from the American Type Culture Collect (ATTC, Manassas, VA). Briefly, cells were grown in RPMI 1640 supplemented with 5% characterized fetal bovine serum (Invitrogen, Carlsbad, CA) and 1% Penicillin/Streptomycin/L-Glutamine at 37° C., 5% CO2, and 95% humidity. Cells are expanded until reaching 70-95% confluency at which point they are subcultured or harvested for assay use. A serial dilution of test compound is dispensed into a 96-well black clear bottom plate in triplicate. Three thousand cells are added per well in 200 μL complete growth medium in the 96-well plate. Plates are incubated for 67-72 hours at 37° C., 5% CO2, and 95% humidity. At the end of the incubation, 40 μL of a 440 μM solution of resazurin (Sigma, St. Louis, MO) in PBS is added to each well of the plate and plates are incubated for an additional 5-6 hours at 37° C., 5% CO2, and 95% humidity. Plates are read on a Synergy2 or equivalent reader (Biotek, Winooski VT) using an excitation of 540 nm and an emission of 600 nm. Data is analyzed using Prism software (GraphPad, San Diego, CA) to calculate IC50 values.
# T1 sequence (P15056 416-766): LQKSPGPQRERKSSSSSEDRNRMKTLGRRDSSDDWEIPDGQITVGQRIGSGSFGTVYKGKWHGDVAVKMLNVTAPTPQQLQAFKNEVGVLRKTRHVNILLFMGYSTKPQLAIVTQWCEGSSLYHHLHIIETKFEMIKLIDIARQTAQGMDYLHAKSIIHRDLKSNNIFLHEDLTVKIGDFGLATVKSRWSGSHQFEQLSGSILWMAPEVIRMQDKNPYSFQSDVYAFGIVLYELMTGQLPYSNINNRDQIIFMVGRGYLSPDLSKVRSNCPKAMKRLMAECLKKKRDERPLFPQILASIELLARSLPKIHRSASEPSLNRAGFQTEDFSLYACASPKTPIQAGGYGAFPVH
# T2 sequence (P15056 416-766 V600E): as the sequence (P15056 416-766) above, with V185E counted along it
IC50 (B-Raf kinase) [nM],IC50 (B-Raf (V600E) kinase) [nM],IC50 (A375 cells) [nM],IC50 (H2405 cells) [nM],SMILES
≤ 100,≤ 100,1000 to 10000,1000 to 10000,Cc1cc(F)c(NC(=O)NCC23CC(F)(C2)C3)cc1-c1cc(OCCO)nc(-c2ccnc3[nH]ncc23)c1 [Example 111]
≤ 100,≤ 100,1000 to 10000,1000 to 10000,Cc1ncc(NC(=O)NCCC2(C)CC2)cc1-c1cc(OCCO)nc(-c2ccnc3c2CC(=O)N3)c1 [Example 112]
≤ 100,≤ 100,100 to 500,100 to 500,Cc1ncc(NC(=O)NCCC2(C)CC2)cc1-c1cc(OCCO)nc(-c2ccnc(NC(=O)C3CC3)c2)c1 [Example 113]
≤ 100,≤ 100,1000 to 10000,500 to 1000,Cc1cc(F)c(NC(=O)NCCC(C)(C)F)cc1-c1nccc(-c2ccnc(NC(=O)C3CC3)c2)n1 [Example 114]
≤ 100,≤ 100,100 to 500,500 to 1000,COC(=O)Nc1cc(-c2cc(-c3cc(NC(=O)NCCC(C)C)c(F)cc3C)cc(OCCO)n2)ccn1 [Example 115]
≤ 100,≤ 100,1000 to 10000,100 to 500,COC1(CCNC(=O)Nc2cc(-c3ccnc(-c4ccnc(NC(=O)C5CC5)c4)n3)c(C)cc2F)CC1 [Example 117]
≤ 100,≤ 100,1000 to 10000,500 to 1000,Cc1ncc(NC(=O)NCCC2(C)CC2)cc1-c1ccnc(-c2ccnc(NC(=O)C3CC3)c2)c1 [Example 118]
100 to 500,≤ 100,1000 to 10000,1000 to 10000,CNC(=O)c1cc(-c2cnnc(-c3cc(NC(=O)NCCC(C)(C)C)c(F)cc3C)c2)ccn1 [Example 119]

# The next lines start with the compound.
SMILES,IC50 (B-Raf kinase) [nM],IC50 (B-Raf (V600E) kinase) [nM],IC50 (A375 cells) [nM],IC50 (H2405 cells) [nM]
"Cc1ccc(NC(=O)Nc2cccc(C(F)(F)F)c2)cc1-c1cc(OCCO)nc(N2CCOCC2)c1 [Example 3, 1-(3-(2-(2-hydroxyethoxy)-6-morpholinopyridin-4-yl)-4-methylphenyl)-3-(3-(trifluoromethyl)phenyl)urea]",≤ 100,≤ 100,500 to 1000,–
Cc1ccc(NC(=O)NCCC(C)(C)C)cc1-c1cc(N2CCOCC2)nc(N2CCOCC2)c1 [Example 4],≤ 100,≤ 100,500 to 1000,100 to 500
Cc1cc(F)c(NC(=O)NCCC(C)(C)C)cc1-c1cc(OCCO)nc(C2=CCOCC2)c1 [Example 7],≤ 100,≤ 100,1000 to 10000,≤ 100
Cc1cc(F)c(NC(=O)NCCC(C)(C)C)cc1-c1cc(N2CCOCC2)nc(N2CCOCC2)c1 [Example 10],≤ 100,≤ 100,100 to 500,500 to 1000
Cc1cc(F)c(NC(=O)NCCC(C)(C)F)cc1-c1cc(OCCO)nc(-c2ccnc3[nH]ncc23)c1 [Example 94],≤ 100,≤ 100,500 to 1000,100 to 500
COC(=O)Nc1cc(-c2cc(-c3cc(NC(=O)NC[C@H]4CCO4)c(F)cc3C)cc(OCCO)n2)ccn1 [Example 96],500 to 1000,≤ 100,1000 to 10000,1000 to 10000
Cc1cc(F)c(NC(=O)NCCC(C)(C)F)cc1-c1cc(OCCO)nc(-c2ccnc3[nH]ccc23)c1 [Example 97],≤ 100,≤ 100,1000 to 10000,500 to 1000
Cc1cc(F)c(NC(=O)NCC(C)C)cc1-c1cc(OCCO)nc(-c2ccnc(NC(=O)C3CC3)c2)c1 [Example 99],≤ 100,≤ 100,1000 to 10000,100 to 500
Cc1cc(F)c(NC(=O)NCCC(C)(C)F)cc1-c1cccc(-c2ccnc3[nH]ncc23)c1 [Example 100],≤ 100,≤ 100,1000 to 10000,1000 to 10000
Cc1cc(F)c(NC(=O)NC2CC3(COC3)C2)cc1-c1cc(OCCO)nc(-c2ccnc3[nH]ncc23)c1 [Example 101],100 to 500,≤ 100,1000 to 10000,1000 to 10000
Cc1ncc(NC(=O)NC[C@H](O)C(C)(C)C)cc1-c1ccnc(-c2ccnc(NC(=O)C3CC3)c2)c1 [Example 102],≤ 100,≤ 100,1000 to 10000,1000 to 10000
COC(=O)Nc1cc(-c2cc(-c3cc(NC(=O)NCCC4(C)CC4)cnc3C)ccn2)ccn1 [Example 103],≤ 100,≤ 100,1000 to 10000,1000 to 10000
COC1(CCNC(=O)Nc2cc(-c3cccc(-c4cc(NC(=O)C5CC5)ncn4)c3)c(C)cc2F)CC1 [Example 104],≤ 100,≤ 100,1000 to 10000,100 to 500
Cc1cc(F)c(NC(=O)NCCC(F)F)cc1-c1cc(OCCO)nc(-c2ccnc(NC(=O)C3CC3)c2)c1 [Example 105],≤ 100,≤ 100,1000 to 10000,500 to 1000
Cc1cc(F)c(NC(=O)NCCC(C)C)cc1-c1cc(OCCO)nc(-c2ccnc(NC(=O)C3CC3)c2)c1 [Example 106],≤ 100,≤ 100,100 to 500,100 to 500
Cc1ncc(NC(=O)NCCC2(C)CC2)cc1-c1ccnc(-c2ccnc(NC(=O)C3CC3)c2)n1 [Example 107],≤ 100,≤ 100,1000 to 10000,100 to 500
COC(C)(C)CCNC(=O)Nc1cc(-c2ccnc(-c3ccnc(NC(=O)C4CC4)c3)n2)c(C)cc1F [Example 108],≤ 100,≤ 100,500 to 1000,100 to 500
COC(=O)Nc1cc(-c2cc(-c3cc(NC(=O)NCCC(C)(C)C)cnc3C)ccn2)ccn1 [Example 109],≤ 100,≤ 100,1000 to 10000,1000 to 10000
Cc1cc(F)c(NC(=O)NCCC2(C)COC2)cc1-c1cc(OCCO)nc(-c2ccnc3[nH]ncc23)c1 [Example 110],100 to 500,≤ 100,1000 to 10000,1000 to 10000
